Laboratory results as given in patent publication US6699857B1, “Tetrahydroquinolinyl 6-methyldihydrothiadiazinone derivatives and use thereof” (Bayer Aktiengesellschaft, priority 1999, dated 2004).

Row | SMILES | melting point
1 | CC1SC(=O)NN=C1c1ccc2c(c1)CCCN2C(=O)NCc1ccc(F)cc1 (stereo not drawn) [Example 10] | 158 to 160 °C
2 | CC1SC(=O)NN=C1c1ccc2c(c1)CCCN2C(=O)c1ccccc1 (stereo not drawn) [Example 13] | 202 to 204 °C
3 | CC1SC(=O)NN=C1c1ccc2c(c1)CCCN2C(=O)C1CCCCC1 (stereo not drawn) [Example 16] | 148 to 150 °C (dec.)
4 | CCCNC(=O)N1CCCc2cc(C3=NNC(=O)SC3C)ccc21 (stereo not drawn) [Example 4] | 151 to 153 °C
5 | CC1SC(=O)NN=C1c1ccc2c(c1)CCCN2C(=O)CCc1ccccc1 (stereo not drawn) [Example 17] | 172 to 174 °C
6 | CCNC(=O)N1CCCc2cc(C3=NNC(=O)SC3C)ccc21 (stereo not drawn) [Example 3] | 122 to 124 °C (dec.)
7 | CC1SC(=O)NN=C1c1ccc2c(c1)CCCN2C(=O)Nc1ccccc1 (stereo not drawn) [Example 6] | 213 to 214 °C (dec.)
8 | CC1SC(=O)NN=C1c1ccc2c(c1)CCCN2C(=O)Nc1cccc2ccccc12 (stereo not drawn) [Example 8] | 165 to 166 °C (dec.)
9 | CC1SC(=O)NN=C1c1ccc2c(c1)CCCN2C(=O)Cc1c(Cl)cccc1Cl (stereo not drawn) [Example 14] | 188 to 189 °C
10 | CC1SC(=O)NN=C1c1ccc2c(c1)CCCN2C(=O)c1cccs1 (stereo not drawn) [Example 18] | 190 to 191 °C
11 | CC1SC(=O)NN=C1c1ccc2c(c1)CCCN2 (stereo not drawn) [Example 2] | 176 to 178 °C
12 | CCCCNC(=O)N1CCCc2cc(C3=NNC(=O)SC3C)ccc21 (stereo not drawn) [Example 5] | 133 to 134 °C
13 | Cc1ccccc1NC(=O)N1CCCc2cc(C3=NNC(=O)SC3C)ccc21 (stereo not drawn) [Example 9] | 153 to 154 °C
14 | CC1SC(=O)NN=C1c1ccc2c(c1)CCCN2C(=O)Nc1ccc(Cl)cc1 (stereo not drawn) [Example 7] | 218 to 220 °C (dec.)
15 | CC1SC(=O)NN=C1c1ccc2c(c1)CCCN2C(=O)c1ccco1 (stereo not drawn) [Example 11] | 159 to 161 °C
